{
  "source": "patent US9044478B2",
  "about": "“Use of 1,4-bis (3-aminoalkyl) piperazine derivatives in the treatment of neurodegenerative diseases” (INSTITUT NATIONAL DE LA SANTE ET DE LA RECHERCHE MEDICALE, priority 2004, dated 2015)",
  "key": {"Aβ1-42": {"system": "Aβ1-42", "assay": "Aβ 1-42 of the cell supernatant quantified by ELISA (Innotest β-Amyloid1-42)", "format": "cell-based, human", "procedure": "(§1) The human neuroblastoma cell line SH-SYSY were cultured in Dulbecco's modified Eagle medium supplemented with 10% fetal calf serum, 2 mM L-glutamine, 1 mM non-essential amino-acids, penicillin/streptomycin (Invitrogen SARL, Cergy Pontoise, France) and 200 μg/ml G418 (to select for APP expression) in a 5% CO2 humidified incubator at 37° C. APP751 cDNA with the Swedish mutation (APP^Sw) was subcloned into stably eukaryotic expression vector pcDNA3 (Invitrogen), allowing for a G418 (Invitrogen) selection of stable clones. This APP cDNA was stably transfected into SH-SY5Y cells using the ethyleneimine polymer ExGen 500 (Euromedex) according to the manufacturer's instructions.\n(§2) Cells were plated into 6-well plates 24 h before drug exposure. […] After treatment, the medium was collected for the dosage of Aβ1-42. Cells were washed with phosphate-buffered saline and scraped with a policeman rubber in 70 μl of Laemmli sample buffer with protease inhibitors (Complete Mini Roche Molecular Biochemicals, Meylan, France), sonicated and heat-treated for 5 min at 100° C. Protein concentration was established using the PlusOne™ 2-D Quant Kit (Amersham Biosciences, Orsay, France) and samples were kept at −80° C. until used.\nThe collected medium was spun at 200 g to eliminate the cell debris and Aβ1-42 concentration was determined using the Innotest® β-Amyloid1-42 (Innogenetics, Ghent, Belgium) according to the manufacturer's instructions.\n(§3) SKNSH SY5Y transfected cells were grown in the presence of drugs at different concentrations, for example at 1 μM or 5 μM, then cells were harvested and analyzed for their APP-CTF content, using the western-blot approach, while Aβ 1-42 of the cell supernatant Was quantified by ELISA, as described in material and methods. For each compound, normal levels have the arbitrary value of 1. For example, if one APP-CTF is increased 10 times, the value is reported as 10. For Aβ peptide, if decreased of 60%, the value is reported as 0.4 (40% remaining)."}, "[1]": {"system": "brain capillary endothelial cells co-cultured with glial cells", "assay": "In vitro Blood-Brain Barrier model, drug transport", "format": "in vitro ADME", "conditions": "for Permeability coefficient: in vitro BBB model", "source_text": "(§4) The ability of some compounds to cross the Blood-Brain Barrier (BBB) has been evaluated, using an in vitro model (Cecchelli, R., et al., In vitro model for evaluating drug transport across the blood-brain barriers. Adv Drug Deliv Rev, 1999. 36(2-3): p. 165-178). The described model consists in brain capillary endothelial cells co-cultured with glial cells, thereby closely mimicking the in vivo conditions (Lundquist, S, and M. Renftel, The use of in vitro cell culture models for mechanistic studies and as permeability screens for the blood-brain barrier in the pharmaceutical industry-background and current status in the drug discovery process. Vascul Pharmacol 2002. 38(6): p. 355-64) and developed by CELLIAL Technologies SA.\n(§5) The transport of drug was good for example 16 and moderate for example 23. Indeed, the permeability coefficients obtained for example 16 (2.26×10^−3 cm/min) and example 23 (1.81×10^−3 cm/min) indicate that these compounds cross the BBB and are good candidates as CNS drugs."}, "[2]": {"system": "endothelial cell monolayer", "assay": "Toxicity on the endothelial cell monolayer of the BBB model", "format": "cell-based", "conditions": "concentration of 10 μM", "source_text": "as §4, §5"}, "[3]": {"assay": "Solubility in the BBB screening", "format": "physicochemical", "source_text": "as §5"}, "APP-CTFs": {"system": "APP-CTFs", "assay": "APP-CTFs content of APPSw-transfected SH-SY5Y cells by western blot", "format": "cell-based, human", "set-up": "key to β (APP-CTF β stub level, normal level = 1) / α (APP-CTF α stub level, normal level = 1) / γ (APP-CTF γ stub level, normal level = 1) / CTFs (APP-CTFs level, normal level = 1): fold of normal level, normal = 1", "procedure": "as §1, §2\nThe APPCter-C17 antibody is raised against the last 17 amino acids of the human APP sequence (Sergeant, N., David, J. P., Champain, D., Ghestem, A., Wattez, A., and Delacourte, A. (2002) J Neurochem 81, 663-672). This polyclonal antibody detects all APP-CTFs fragments. The tubulin signal was used as a loading control and to normalize the APP-CTFs content. Anti-mouse or anti-rabbit secondary antibodies coupled with horseradish peroxidase were purchased at SIGMA Immunochemicals (Saint Quentin Fallavier, France).\nThe same quantity of total proteins (20 μg/lane) was loaded on a 16.5% Tris-tricine polyacrylamide gel. Tris-tricine SDS-polyacrylamide gel electrophoresis (PAGE) was performed following the procedure of Schagger and Von Jagow (1987) (Schagger, H., and von Jagow, G. (1987) Anal Biochem 166, 368-379) with a protean II Xi Cell (Bio-Rad, Marnes la coquette, France). Proteins were transferred to nitrocellulose membrane at 2.5 mA/cm^2 per gel using the SemiDry Novablot Transfer system (Amersham Biosciences, Orsay, France), according to the manufacturer's instructions. Proteins were reversibly stained with Ponceau Red to check the quality of the transfer. Membranes were blocked in 25 mM Tris-HCl pH 8.0, 150 mM NaCl, 0.1% Tween-20 (v/v) and 5% (w/v) of skimmed milk for 30 min. Membranes were incubated overnight at 4° C. with appropriate dilutions of the primary antibodies, and incubated for 1 h at room temperature with secondary antibody.\nWestern blot films were digitized using an UMax scanner calibrated for optical densities (Amersham Biosciences). The Image-MASTER 1D ELITE Software (Amersham Biosciences) was used to quantify the signal, and data were collected using Excel Software (Microsoft, LesUlis, France).\nas §3"}, "[4]": {"conditions": "greater concentration (5 μM) at 24 hours"}, "[5]": {"conditions": "low concentration (1 μM) at 6 hours"}, "[6]": {"conditions": "24 h, 1 μM as printed (fourth column)"}},
  "data": [
    {"compound": "1,4-bis{3-[N-n-heptyl)amino]propyl}piperazine [Example 10]", "values": [
      {"measurement": "Decrease of Aβ peptide levels compared to the control (FIG. 1)", "setting": "Aβ1-42; [4]", "value": "efficiency is confirmed"},
      {"measurement": "Decrease of Aβ peptide levels compared to the control (FIG. 1)", "setting": "Aβ1-42; [5]", "value": "efficient to decrease Aβ peptide levels"}
    ]},
    {"compound": "N^4-(3-{4-[3(diisobutylamino)propyl]piperizano}propyl)-benzimidazol-2-amine [Example 16]", "values": [
      {"measurement": "Transport of drug across the in vitro BBB", "setting": "[1]", "value": "good"},
      {"measurement": "Diffusion across the filter membrane coated with collagen and without cells", "setting": "[1]", "value": "able to diffuse across the filter membrane"},
      {"measurement": "Permeability coefficient", "setting": "[1]", "value": 37.7, "unit": "×10⁻⁶ cm/s"},
      {"measurement": "Toxicity on the endothelial cell monolayer", "setting": "[2]", "value": "not toxic"},
      {"measurement": "Solubility", "setting": "[3]", "value": "soluble"}
    ]},
    {"compound": "N^4-[3-(4-{3-[diisobutylamino]propyl}piperizano)propyl]-4-benzyloxyamine [Example 23]", "values": [
      {"measurement": "Transport of drug across the in vitro BBB", "setting": "[1]", "value": "moderate"},
      {"measurement": "Diffusion across the filter membrane coated with collagen and without cells", "setting": "[1]", "value": "able to diffuse across the filter membrane"},
      {"measurement": "Permeability coefficient", "setting": "[1]", "value": 30.2, "unit": "×10⁻⁶ cm/s"},
      {"measurement": "Toxicity on the endothelial cell monolayer", "setting": "[2]", "value": "not toxic"},
      {"measurement": "Solubility", "setting": "[3]", "value": "soluble"}
    ]},
    {"compound": "Clc1ccc(CNCCCN2CCN(CCCNCc3ccc(Cl)cc3)CC2)cc1", "note": "[Example 4]", "values": [
      {"measurement": "Efficiency for α and γ-APP-CTFs stubs", "setting": "APP-CTFs", "value": "particularly high efficiency"},
      {"measurement": "CTFs (APP-CTFs level, normal level = 1)", "setting": "APP-CTFs; 6 h, 1 μM", "value": 6},
      {"measurement": "α (APP-CTF α stub level, normal level = 1)", "setting": "APP-CTFs; 6 h, 1 μM", "value": 14},
      {"measurement": "β (APP-CTF β stub level, normal level = 1)", "setting": "APP-CTFs; 6 h, 1 μM", "value": 0.8},
      {"measurement": "γ (APP-CTF γ stub level, normal level = 1)", "setting": "APP-CTFs; 6 h, 1 μM", "value": 9.6},
      {"measurement": "CTFs (APP-CTFs level, normal level = 1)", "setting": "APP-CTFs; 6 h, 5 μM", "value": 5},
      {"measurement": "α (APP-CTF α stub level, normal level = 1)", "setting": "APP-CTFs; 6 h, 5 μM", "value": 11},
      {"measurement": "β (APP-CTF β stub level, normal level = 1)", "setting": "APP-CTFs; 6 h, 5 μM", "value": 1.2},
      {"measurement": "γ (APP-CTF γ stub level, normal level = 1)", "setting": "APP-CTFs; 6 h, 5 μM", "value": 5.7},
      {"measurement": "CTFs (APP-CTFs level, normal level = 1)", "setting": "APP-CTFs; 24 h, 1 μM (third column)", "value": 3.5},
      {"measurement": "α (APP-CTF α stub level, normal level = 1)", "setting": "APP-CTFs; 24 h, 1 μM (third column)", "value": 3.5},
      {"measurement": "β (APP-CTF β stub level, normal level = 1)", "setting": "APP-CTFs; 24 h, 1 μM (third column)", "value": 0.8},
      {"measurement": "γ (APP-CTF γ stub level, normal level = 1)", "setting": "APP-CTFs; 24 h, 1 μM (third column)", "value": 5.1},
      {"measurement": "CTFs (APP-CTFs level, normal level = 1)", "setting": "APP-CTFs; [6]", "value": 65},
      {"measurement": "α (APP-CTF α stub level, normal level = 1)", "setting": "APP-CTFs; [6]", "value": 7},
      {"measurement": "β (APP-CTF β stub level, normal level = 1)", "setting": "APP-CTFs; [6]", "value": 5},
      {"measurement": "γ (APP-CTF γ stub level, normal level = 1)", "setting": "APP-CTFs; [6]", "value": 14.4},
      {"measurement": "Efficiency for Aβ peptide (FIG. 1)", "setting": "Aβ1-42", "value": "particularly high efficiency"},
      {"measurement": "Aβ (Aβ peptide level, normal level = 1; fraction remaining)", "setting": "Aβ1-42; 6 h, 1 μM", "value": 0.2},
      {"measurement": "Aβ (Aβ peptide level, normal level = 1; fraction remaining)", "setting": "Aβ1-42; 6 h, 5 μM", "value": 0},
      {"measurement": "Aβ (Aβ peptide level, normal level = 1; fraction remaining)", "setting": "Aβ1-42; 24 h, 1 μM (third column)", "value": 1},
      {"measurement": "Aβ (Aβ peptide level, normal level = 1; fraction remaining)", "setting": "Aβ1-42; [6]", "value": 0.1},
      {"measurement": "Decrease of Aβ peptide levels compared to the control (FIG. 1)", "setting": "Aβ1-42; [4]", "value": "efficiency is confirmed"},
      {"measurement": "Decrease of Aβ peptide levels compared to the control (FIG. 1)", "setting": "Aβ1-42; [5]", "value": "efficient to decrease Aβ peptide levels"}
    ]}
  ]
}
